Consider 3 compounds from patent publication US10519143B2, “Substituted-indole-compounds as estrogen receptor down-regulators” (LUOXIN PHARMACEUTICAL (SHANGHAI) CO., LTD, priority 2016, dated 2019).

Series [1] is described as follows: drug distribution in tissues (plasma, tumor, brain). The format is in vivo, mice. The settings on record: for AUC0-last (nmol · h/kg) brain / AUC0-last (nmol · h/kg) plasma / AUC0-last (nmol · h/kg) tumor: dose 67.3 μmol/kg, 20th day after grouping. The protocol: On the 20th day after grouping, the sample was collected from plasma, tumor, breast and brain of the mice at four time points (2-3 mice each time point) which was respectively 0.5 hour, 1.5 hours, 6 hours and 24 hours after administration. The blood (0.5 mL) was collected using a 1.5 mL EDTA-K2 anticoagulation tube, immediately centrifuged at 4000 rpm, 4° C. for 10 minutes to prepare plasma, the plasma sample was stored at −80° C. for determination of drug concentration. The tumor was collected using a 2 mL cryotube, and the brain was collected using a 5 mL cryotube, the samples were immediately put into liquid nitrogen for quike freeze. All samples were stored at −80° C. for determination of drug concentration after sampling. The result was converted based on corresponding AUC to compare the drug distribution.

Series [2] can be described thus: in vivo PK properties (cassette PK). The settings on record: plasma; for AUC(0-t): read-out: AUC0-last (nm/hr); for Vd: read-out: Vdss.
Series [3] relates to MCF-7 breast cancer cell xenograft. As to the kind of experiment: antitumor activity on MCF-7 breast cancer cell xenograft model. The series is classed as in vivo, BALB/c nude mice. The settings on record: for T/C (%) / TGI (%) / tumor volumn (mm^3) 17th day after grouping: oral, once a day, ARN-810 10/30 mg/kg, I-1 30 mg/kg; for T/C (%) / TGI (%): 17th day after grouping; for tumor volumn (mm^3) 17th day after grouping: Mean ± SEM. Here is the method: Mice were inoculated subcutaneously with 0.36 mg estrogen sustained release tablet (60 days release) on the left shoulder three days before inoculation. When cells were in the logarithmic growth phase, cells were harvested, counted and adjusted to 10×10^7 cells/mL, then an equal volume of Matrigel was added, mixing for inoculation. 0.2 mL MCF-7 tumor cell suspension (10×10^6) was inoculated subcutaneously into the right shoulder of each mouse. On the 7th day after tumor cell inoculation, mice were grouped and administrated once a day, with an average tumor volume of 169 mm^3 and a body weight of 23.33 g. Tumor volume and body weight were measured twice a week after grouping, and the tumor growth rate (T/C) and tumor growth inhibition rate (TGI) were calculated based on the last measuring data on the 17th day after grouping.

The target in another series is CYP 2C9 (Homo sapiens, UniProt P11712). Description: inhibition of CYP enzymes 2C9. The series is classed as in vitro ADME.
Another series deals with CYP 2D6 (Homo sapiens, UniProt P10635). As to the kind of experiment: inhibition of CYP enzymes 2D6. The format is in vitro ADME.
Series [4] is described as follows: plasma protein binding rate (CD-1 mouse). The format is in vitro ADME.
For the next series, the target named is CYP 2C19 (Homo sapiens, UniProt P33261). As to the kind of experiment: inhibition of CYP enzymes 2C19. The series is classed as in vitro ADME.
The nature of series [5]: plasma protein binding rate (Human). The series is classed as in vitro ADME.
A further series has as its target CYP 3A4 (Homo sapiens, UniProt P08684). Description: inhibition of CYP enzymes 3A4. The format is in vitro ADME.
For the next series, the system named is MCF-7 cells. Description: MCF-7 cell proliferation inhibition assay. The series is classed as cell-based. The settings on record: Homo sapiens, MCF7, 144 h; MCF-7 cells, 6 days incubation, CellTiter-Glo; read-out: anti-proliferation in MCF-7 cells. Here is the method:
Experimental Reagent: RPMI 1640 medium, fetal bovine serum, Promega CellTiter-Glo reagent. The cell line MCF-7 was purchased from The European Collection of Authenticated Cell Cultures (ECACC). Envision Multilabel Reader (PerkinElmer). Experimental Method: […] The cell plate was placed in a carbon dioxide incubator overnight. […] The cell plate was incubated in a carbon dioxide incubator for 6 days. Promega CellTiter-Glo reagent was added to the cell plate at 25 μL per well, cells were incubated for 10 minutes at room temperature to stabilize the luminescence signal, which was measured using PerkinElmer Envision Multilabel Reader. Data Analysis: […] (Model 205 in XLFIT5, iDBS)

A further series concerns the target T1, CYP 1A2 (Homo sapiens, UniProt P05177).
T1 sequence (P05177 1-516): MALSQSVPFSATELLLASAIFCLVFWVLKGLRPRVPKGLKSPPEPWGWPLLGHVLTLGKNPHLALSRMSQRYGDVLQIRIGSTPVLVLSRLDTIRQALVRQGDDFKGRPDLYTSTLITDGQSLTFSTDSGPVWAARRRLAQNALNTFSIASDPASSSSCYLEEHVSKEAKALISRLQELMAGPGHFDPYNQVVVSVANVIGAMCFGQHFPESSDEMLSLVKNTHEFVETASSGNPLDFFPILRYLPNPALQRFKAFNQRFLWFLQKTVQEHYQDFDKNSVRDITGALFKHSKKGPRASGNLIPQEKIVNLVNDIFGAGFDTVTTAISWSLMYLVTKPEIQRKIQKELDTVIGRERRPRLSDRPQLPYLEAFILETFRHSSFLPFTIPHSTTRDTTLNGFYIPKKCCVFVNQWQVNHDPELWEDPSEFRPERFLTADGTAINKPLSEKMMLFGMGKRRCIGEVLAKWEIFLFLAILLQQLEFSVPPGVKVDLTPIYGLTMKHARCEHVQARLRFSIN
As to the kind of experiment: inhibition of CYP enzymes 1A2. The series is classed as in vitro ADME.

For series [6] the following is noted: prior art statement; cited from earlier work.
In the next series the test system is breast cancer. The settings on record: intramuscular injection, prior art statement; cited from earlier work.

Like-named read-outs stand apart in the source and are kept apart here.

What is called clearance is the volume of plasma or blood freed of the substance per unit of time. Low values mean inefficient removal, high ones efficient removal. One may read the half-life as how long it takes for the measured level to halve. Low readings indicate rapid decline, high ones slow decline. One may read the Cmax as the peak of the concentration-time curve. One may read the Tmax as the time at which the peak concentration occurs. The bioavailability is the share of a dose that reaches the circulation, judged against a reference dose that is usually intravenous. A low value points to poor availability. By fraction unbound is commonly meant the share of the substance not bound to proteins or other matrix. A higher fraction unbound goes with much free substance.

Chain of CYP 2C9 (P11712 whole entry): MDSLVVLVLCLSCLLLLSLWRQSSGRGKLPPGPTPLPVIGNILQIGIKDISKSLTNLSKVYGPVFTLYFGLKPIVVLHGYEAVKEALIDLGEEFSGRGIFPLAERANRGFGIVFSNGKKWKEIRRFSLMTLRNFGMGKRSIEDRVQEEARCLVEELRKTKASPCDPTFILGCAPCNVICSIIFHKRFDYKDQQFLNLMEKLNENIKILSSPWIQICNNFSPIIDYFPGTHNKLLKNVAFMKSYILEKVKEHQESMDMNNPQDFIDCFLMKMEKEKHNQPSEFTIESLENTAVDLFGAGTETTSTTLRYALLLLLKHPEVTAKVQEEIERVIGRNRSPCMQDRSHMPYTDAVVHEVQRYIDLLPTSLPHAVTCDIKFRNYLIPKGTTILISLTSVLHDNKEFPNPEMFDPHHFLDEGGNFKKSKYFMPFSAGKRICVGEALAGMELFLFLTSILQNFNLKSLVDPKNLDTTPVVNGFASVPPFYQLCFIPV
Chain of CYP 2C19 (P33261 whole entry): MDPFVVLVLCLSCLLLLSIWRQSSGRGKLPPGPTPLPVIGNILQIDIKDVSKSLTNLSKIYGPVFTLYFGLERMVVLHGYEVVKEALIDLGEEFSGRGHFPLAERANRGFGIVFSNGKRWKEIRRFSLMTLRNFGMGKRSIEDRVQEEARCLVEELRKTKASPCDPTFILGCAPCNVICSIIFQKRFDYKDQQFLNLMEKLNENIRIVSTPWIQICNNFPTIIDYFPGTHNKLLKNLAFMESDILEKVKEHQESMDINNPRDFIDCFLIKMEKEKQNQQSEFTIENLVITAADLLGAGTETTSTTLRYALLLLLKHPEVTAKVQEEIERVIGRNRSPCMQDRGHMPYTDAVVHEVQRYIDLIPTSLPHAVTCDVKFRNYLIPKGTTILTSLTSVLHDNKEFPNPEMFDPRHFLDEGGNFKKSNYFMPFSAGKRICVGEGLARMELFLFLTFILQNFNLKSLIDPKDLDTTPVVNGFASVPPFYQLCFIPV
Chain of CYP 2D6 (P10635 whole entry): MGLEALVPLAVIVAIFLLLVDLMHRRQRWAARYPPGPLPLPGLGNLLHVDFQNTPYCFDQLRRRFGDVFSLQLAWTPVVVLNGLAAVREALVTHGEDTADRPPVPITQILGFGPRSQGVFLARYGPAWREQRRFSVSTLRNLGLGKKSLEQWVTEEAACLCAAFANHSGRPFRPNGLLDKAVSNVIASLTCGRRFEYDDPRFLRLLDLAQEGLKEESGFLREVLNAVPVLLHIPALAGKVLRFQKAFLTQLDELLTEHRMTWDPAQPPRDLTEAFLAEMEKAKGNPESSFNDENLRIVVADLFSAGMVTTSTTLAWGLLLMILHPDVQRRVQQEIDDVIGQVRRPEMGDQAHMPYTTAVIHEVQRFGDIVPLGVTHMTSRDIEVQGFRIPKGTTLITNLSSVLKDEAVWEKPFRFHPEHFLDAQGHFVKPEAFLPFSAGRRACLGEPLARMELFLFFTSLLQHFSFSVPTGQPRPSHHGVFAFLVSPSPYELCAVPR
Chain of CYP 3A4 (P08684 whole entry): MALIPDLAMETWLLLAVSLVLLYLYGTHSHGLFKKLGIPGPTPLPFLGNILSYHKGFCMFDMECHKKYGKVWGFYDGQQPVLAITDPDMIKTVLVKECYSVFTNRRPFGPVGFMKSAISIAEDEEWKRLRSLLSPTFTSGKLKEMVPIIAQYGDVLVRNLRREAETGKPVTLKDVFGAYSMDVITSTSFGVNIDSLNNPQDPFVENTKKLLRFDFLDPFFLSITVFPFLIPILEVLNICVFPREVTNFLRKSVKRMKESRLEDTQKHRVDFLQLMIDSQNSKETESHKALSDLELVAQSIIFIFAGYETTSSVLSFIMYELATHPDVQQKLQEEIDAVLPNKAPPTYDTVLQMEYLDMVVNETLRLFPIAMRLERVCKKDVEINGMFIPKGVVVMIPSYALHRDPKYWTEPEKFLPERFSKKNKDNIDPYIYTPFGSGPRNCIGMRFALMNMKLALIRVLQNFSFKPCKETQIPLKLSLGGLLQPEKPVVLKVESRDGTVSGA

For the compound `CC/C(=C(/c1ccc(/C=C/C(=O)O)cc1)c1ccc2[nH]ncc2c1)c1ccc(F)cc1Cl` [ARN-810, reference compound], in [1], the “AUC0-last (nmol · h/kg) brain” value came out at 3490 nmol·h/kg, the “AUC0-last (nmol · h/kg) plasma” value was determined as 33545 nmol·h/kg and the “AUC0-last (nmol · h/kg) tumor” value worked out at 11368 nmol·h/kg. In addition, in series [2] (iv, 1 mg/kg, i.V. 1 mpk), the C0 was found to be 1640 nM, the clearance is 18.9 mL/min/kg, the half-life is 1.35 h and the AUC(0-t) was 1.99 µM·h. In series [2] (iv, 1 mg/kg, i.V. 1 mpk), the Vd amounted to 1.93 L/kg. For the same compound, in series [2] (po, 2.5 mg/kg, P.O 2.5 mpk), the highest level (Cmax) was 924 nM, the time to peak (Tmax) worked out at 0.417 h, the bioavailability was found to be 66% and the half-life is 3.49 h. In addition, the AUC(0-t) in series [2] (po, 2.5 mg/kg, P.O 2.5 mpk) turned out to be 3.28 µM·h. In series [3], the “T/C (%)” value is 43.4%, the “TGI (%)” value was determined as 75.7% and the “tumor volumn (mm^3) 17th day after grouping” value is listed as 290 ± 38 mm^3.
In turn, `CC/C(=C(/c1ccc(/C=C/C(=O)O)cc1)c1cc2ccccc2[nH]1)c1ccc(F)cc1Cl` [Compound I-1] gave an IC50 against CYP 2C9 of 10.1 µM. For the same compound, the “distribution in brain tissue compared with ARN-810” value in series [1] (brain tissue) was “much better”. Moreover, in [1], the “AUC0-last (nmol · h/kg) brain” value is 43167 nmol·h/kg, the “AUC0-last (nmol · h/kg) plasma” value amounted to 118937 nmol·h/kg and the “AUC0-last (nmol · h/kg) tumor” value came out at 55487 nmol·h/kg. The “distribution in tumor tissue compared with ARN-810” value in [1] (tumor tissue) is on record as “much better”. At CYP 2D6, the IC50 came to 43.4 µM. Besides, in series [2] (iv, 1 mg/kg, i.V. 1 mpk), the C0 stood at 3480 nM, the clearance was found to be 3.61 mL/min/kg, the half-life is 2.81 h and the AUC(0-t) stood at 10.4 µM·h. For the same compound, the Vd in series [2] (iv, 1 mg/kg, i.V. 1 mpk) turned out to be 0.992 L/kg. Besides, in series [2] (po, 2.5 mg/kg, P.O 2.5 mpk), the Cmax was 2150 nM, the Tmax came to 3.33 h, the bioavailability was 70.6% and the half-life is 3.18 h. In series [2] (po, 2.5 mg/kg, P.O 2.5 mpk), the AUC(0-t) is 18.3 µM·h. For the same compound, the fraction unbound in series [4] was 0.012. The same compound displayed an IC50 on CYP 2C19 of 40.4 µM. Also, the fraction unbound in [5] was 0.028. For the same compound, the “antitumor activity compared with ARN-810” value in series [3] (oral I-1 30 mg/kg versus oral ARN-810 10/30 mg/kg) was “superior”. In [3], the “T/C (%)” value was 30.1%, the “TGI (%)” value is 93.6% and the “tumor volumn (mm^3) 17th day after grouping” value is listed as 201 ± 27 mm^3. For the same compound, the IC50 against CYP 3A4 came to 25.1 µM. In the series on MCF-7 cells, the IC50 is 0.0385 µM. The same compound yielded an IC50 at CYP 1A2 of 25.5 µM.
Turning to `C[C@]12CC[C@@H]3c4ccc(O)cc4C[C@@H](CCCCCCCCC[S+]([O-])CCCC(F)(F)C(F)(F)F)[C@H]3[C@@H]1CC[C@@H]2O` (stereo partly drawn) [fulvestrant], in [6], the oral bioavailability entry was “zero”. The “breast cancer patients showing clinical response” value with breast cancer is “about 50%”.
